Consider three substances from patent US10962508B2, “Ultrasound-based method and related system to evaluate hemostatic function of whole blood” (University of Virginia Patent Foundation, priority 2009, dated 2021).

“Also recorded” adds a separate entry of the source.

What all share (format): cell-based, human
Assay [1] relates to fibrin polymerization in whole blood. Description: Sonorheometry of whole blood: coagulation plasma factors and fibrin polymerization (GPRP titration). The conditions noted are these: kaolin-activated citrated whole blood, 5 volunteers; GPRP 0, 1, 2, 4, 8 mM. How it is done: (§1) Blood samples were obtained from a peripheral vein of the arm of a patient into six 1.8 ml Vacutainers™ (Becton Dickinson, Franklin Lakes, N.J.) containing 3.2% (0.105M) sodium citrate to prevent coagulation within the tubes. The first tube was discarded, while the remaining tubes were placed on a rocker table and analyzed sequentially starting thirty minutes after the draw. For all the experiments described here, samples were obtained from a total of eight volunteers (four male and four female) with age range of twenty-three to thirty years (mean and standard deviation of 25.75±3.3 years) and with no history of thrombotic or hemorrhagic disorders. Ultrasound pulses having 10 Mhz center frequency were applied, PRF was adaptively adjusted with the range of about 25 Hz to about 12.8 kHz. Automated measurements having a one second acquisition time were performed every six seconds.
In a typical experiment, 1 ml of citrated blood was pipetted into a 4 ml clear polystyrene cuvette 142 along with 0.5 mg of kaolin activator to start coagulation through activation of the intrinsic pathway and 62 μl of 0.2M CaCl2 to reverse the anticoagulant effect of the sodium citrate. Other reagents were also added as required by the specific study performed. Phosphate Buffer Saline (PBS) solution was added to maintain identical blood dilution. Sonorheometry data acquisition was initiated one minute after all the reagents were pipetted into the sample, and measurements were performed every six seconds.
Gly-Pro-Arg-Pro (GPRP) was obtained from Calbiochem (EMD Chemicals Inc., Gibbstown, N.J.) with 99.1% purity as determined by HPLC. GPRP was dissolved in PBS into 100 mM stock. Kaolin was obtained in powder form (Sigma Aldrich, St. Louis, Mo.) and suspended in sterile sodium chloride solution (Becton Dickinson, Franklin Lakes, N.J.). Monoclonal antibody abciximab (ReoPro®, Eli Lilly and Company, Indianapolis, Ind.) was obtained in a concentration of 2 mg/ml. The original solution was diluted by a factor of five by adding 200 μL of PBS into 50 μl of the original ReoPro solution. The serine protease abbokinase (urokinase-type Plasminogen Activator, or uPA, Hyphen Biomed, Neuville-sur-Oise, France) was obtained in a concentration of 1 unit/μl.
(§2) The raw ultrasound data were transferred from the custom PCB 110 to the laptop computer 150 through USB interface 112 and analyzed in MATLAB (MathWorks Inc., Natick, Mass.). […]
(§3) The sonorheometry parameters were calculated by fitting values 20 T to a sigmoidal curve 602 and evaluating the first derivative 30 of the curve 602, as shown in FIG. 8. For example, the clotting times TC1 and TC2 were calculated based on a threshold value of the derivative curve (20% of the minimum value), whereas the clotting slope CFR is the minimum of the derivative curve. […]

Assay [2] deals with platelet aggregation in whole blood. Description: Sonorheometry of whole blood: assessment of platelet function (abciximab titration). How it is done:
as §1
(§4) In a typical experiment, 1 ml of citrated blood was pipetted into a 4 ml clear polystyrene cuvette 142 along with 0.5 mg of kaolin activator to start coagulation through activation of the intrinsic pathway and 62 μl of 0.2M CaCl2 to reverse the anticoagulant effect of the sodium citrate. Other reagents were also added as required by the specific study performed. Phosphate Buffer Saline (PBS) solution was added to maintain identical blood dilution. […]
(§5) Gly-Pro-Arg-Pro (GPRP) was obtained from Calbiochem (EMD Chemicals Inc., Gibbstown, N.J.) with 99.1% purity as determined by HPLC. […]
as §2, §3

Assay [3] deals with fibrinolysis of whole blood clot. As to the kind of experiment: Sonorheometry of whole blood: assessment of fibrinolytic proteins (urokinase titration). The following applies: urokinase 0, 100, 150, 200 Units per ml of blood. The method, then: as §1, §4, §5, §2, §3
The mark [4] stands for this setting: kaolin-activated citrated whole blood.

Gly-Pro-Arg-Pro [GPRP]: in assay [1], the “clot formation rate CFR (rate of fibrin polymerization)” value was “decreased”, the “final clotting time TC2” value was “increase with the concentration of GPRP”, the “initial clotting time TC1” value was “increase with the concentration of GPRP” and the “stiffness S (final stiffness of the formed clot)” value was “decreased”.
On to “abciximab: monoclonal antibody; inhibitor of platelet aggregation blocking the IIb/IIIa receptor”, for which the “other parameters describing the dynamics of clot formation and dissolution” value in assay [2] (abciximab 0, 2, 4, 6, 8, 12 μg/ml) was “did not change significantly”. Besides, in assay [2] (abciximab 0 to 12 μg/ml), the “variation of final clot stiffness across the concentrations used” value is “varied by over one order of magnitude”. Further, the “stiffness SMAX” value in assay [2] (kaolin-activated citrated whole blood, five individuals, abciximab 0, 2, 4, 6, 8, 12 μg/ml) is on record as “reduces the stiffness SMAX yielding a softer clot”.
Regarding urokinase, in assay [3] (setting [4]), the “clot lysis time TL1” value is “decreased as a function of urokinase concentration” and the “clot lysis time TL2” value is on record as “decreased as a function of urokinase concentration”. Moreover, in assay [3], the “return of blood sample to a viscous fluid (clot dissolution)” value was “returned to a viscous fluid significantly faster with increasing concentrations of urokinase; also recorded: rapidly dissolved the blood clot and restored the original mechanical conditions prior to clot formation”.
